Results: ChEMBL document CHEMBL4411296, “Design and development of Isatin-triazole hydrazones as potential inhibitors of microtubule affinity-regulating kinase 4 for the therapeutic management of cell proliferation and metastasis” (Eur J Med Chem, 2019)

Assays:
Format in all cases: functional
TK-10 = assay: Growth inhibition of human TK10 cells assessed as cell growth at 10 uM after 48 hrs by sulforhodamine B assay relative to control; settings: TK-10, 48 h, read-out: Activity
PC-3 = assay: Growth inhibition of human PC3 cells assessed as cell growth at 10 uM after 48 hrs by sulforhodamine B assay relative to control; settings: PC-3, 48 h, read-out: Activity
HOP-62 = assay: Growth inhibition of human HOP62 cells assessed as cell growth at 10 uM after 48 hrs by sulforhodamine B assay relative to control; settings: HOP-62, 48 h, read-out: Activity
Malme-3M = assay: Growth inhibition of human MALME-3M cells assessed as cell growth at 10 uM after 48 hrs by sulforhodamine B assay relative to control; settings: read-out: Activity
LOX IMVI = assay: Growth inhibition of human LOXIMVI cells assessed as cell growth at 10 uM after 48 hrs by sulforhodamine B assay relative to control; settings: read-out: Activity
RXF 393 = assay: Growth inhibition of human RXF393 cells assessed as cell growth at 10 uM after 48 hrs by sulforhodamine B assay relative to control; settings: RXF 393, 48 h, read-out: Activity
Hs-578T = assay: Growth inhibition of human Hs 578T cells assessed as cell growth at 10 uM after 48 hrs by sulforhodamine B assay relative to control; settings: read-out: Activity
MOLT-4 = assay: Growth inhibition of human MOLT4 cells assessed as cell growth at 10 uM after 48 hrs by sulforhodamine B assay relative to control; settings: MOLT-4, 48 h, read-out: Activity
OVCAR-8 = assay: Growth inhibition of human OVCAR8 cells assessed as cell growth at 10 uM after 48 hrs by sulforhodamine B assay relative to control; settings: OVCAR-8, 48 h, read-out: Activity
CAKI-1 = assay: Growth inhibition of human Caki1 cells assessed as cell growth at 10 uM after 48 hrs by sulforhodamine B assay relative to control; settings: CAKI-1, 48 h, read-out: Activity
M14 = assay: Growth inhibition of human M14 cells assessed as cell growth at 10 uM after 48 hrs by sulforhodamine B assay relative to control; settings: M14, 48 h, read-out: Activity
NCI-H460 = assay: Growth inhibition of human NCI-H460 cells assessed as cell growth at 10 uM after 48 hrs by sulforhodamine B assay relative to control; settings: NCI-H460, 48 h, read-out: Activity
EKVX = assay: Growth inhibition of human EKVX cells assessed as cell growth at 10 uM after 48 hrs by sulforhodamine B assay relative to control; settings: read-out: Activity
HL-60(TB) = assay: Growth inhibition of human HL-60(TB) cells assessed as cell growth at 10 uM after 48 hrs by sulforhodamine B assay relative to control; settings: HL-60, 48 h, read-out: Activity
IGROV-1 = assay: Growth inhibition of human IGROV1 cells assessed as cell growth at 10 uM after 48 hrs by sulforhodamine B assay relative to control; settings: IGROV-1, 48 h, read-out: Activity
HCC 2998 = assay: Growth inhibition of human HCC2998 cells assessed as cell growth at 10 uM after 48 hrs by sulforhodamine B assay relative to control; settings: HCC 2998, 48 h, read-out: Activity
SK-MEL-5 = assay: Growth inhibition of human SK-MEL-5 cells assessed as cell growth at 10 uM after 48 hrs by sulforhodamine B assay relative to control; settings: SK-MEL-5, 48 h, read-out: Activity
NCI/ADR-RES = assay: Growth inhibition of human NCI/ADR-RES cells assessed as cell growth at 10 uM after 48 hrs by sulforhodamine B assay relative to control; settings: read-out: Activity
SF-539 = assay: Growth inhibition of human SF539 cells assessed as cell growth at 10 uM after 48 hrs by sulforhodamine B assay relative to control; settings: SF-539, 48 h, read-out: Activity
A549 = assay: Growth inhibition of human A549/ATCC cells assessed as cell growth at 10 uM after 48 hrs by sulforhodamine B assay relative to control; settings: A549, 48 h, read-out: Activity
HT-29 = assay: Growth inhibition of human HT-29 cells assessed as cell growth at 10 uM after 48 hrs by sulforhodamine B assay relative to control; settings: HT-29, 48 h, read-out: Activity
KM12 = assay: Growth inhibition of human KM12 cells assessed as cell growth at 10 uM after 48 hrs by sulforhodamine B assay relative to control; settings: KM12, 48 h, read-out: Activity
HCT-15 = assay: Growth inhibition of human HCT15 cells assessed as cell growth at 10 uM after 48 hrs by sulforhodamine B assay relative to control; settings: HCT-15, 48 h, read-out: Activity
MDA-MB-435 = assay: Growth inhibition of human MDA-MB-435 cells assessed as cell growth at 10 uM after 48 hrs by sulforhodamine B assay relative to control; settings: MDA-MB-435, 48 h, read-out: Activity
SF-268 = assay: Growth inhibition of human SF268 cells assessed as cell growth at 10 uM after 48 hrs by sulforhodamine B assay relative to control; settings: SF-268, 48 h, read-out: Activity
OVCAR-5 = assay: Growth inhibition of human OVCAR5 cells assessed as cell growth at 10 uM after 48 hrs by sulforhodamine B assay relative to control; settings: OVCAR-5, 48 h, read-out: Activity
SN12C = assay: Growth inhibition of human SN12C cells assessed as cell growth at 10 uM after 48 hrs by sulforhodamine B assay relative to control; settings: read-out: Activity
HCT-116 = assay: Growth inhibition of human HCT116 cells assessed as cell growth at 10 uM after 48 hrs by sulforhodamine B assay relative to control; settings: HCT-116, 48 h, read-out: Activity
SNB-19 = assay: Growth inhibition of human SNB19 cells assessed as cell growth at 10 uM after 48 hrs by sulforhodamine B assay relative to control; settings: SNB-19, 48 h, read-out: Activity
SK-MEL-2 = assay: Growth inhibition of human SK-MEL-2 cells assessed as cell growth at 10 uM after 48 hrs by sulforhodamine B assay relative to control; settings: SK-MEL-2, 48 h, read-out: Activity
RPMI-8226 = assay: Growth inhibition of human RPMI8226 cells assessed as cell growth at 10 uM after 48 hrs by sulforhodamine B assay relative to control; settings: RPMI-8226, 48 h, read-out: Activity
MDA-MB-231 = assay: Growth inhibition of human MDA-MB-231 cells assessed as cell growth at 10 uM after 48 hrs by sulforhodamine B assay relative to control; settings: MDA-MB-231, 48 h, read-out: Activity
ACHN = assay: Growth inhibition of human ACHN cells assessed as cell growth at 10 uM after 48 hrs by sulforhodamine B assay relative to control; settings: read-out: Activity
UACC-62 = assay: Growth inhibition of human UACC62 cells assessed as cell growth at 10 uM after 48 hrs by sulforhodamine B assay relative to control; settings: UACC-62, 48 h, read-out: Activity

SMILES	growth at 10 µM (TK-10) [%]	growth at 10 µM (PC-3) [%]	growth at 10 µM (HOP-62) [%]	growth at 10 µM (Malme-3M) [%]	growth at 10 µM (LOX IMVI) [%]	growth at 10 µM (RXF 393) [%]	growth at 10 µM (Hs-578T) [%]	growth at 10 µM (MOLT-4) [%]	growth at 10 µM (OVCAR-8) [%]	growth at 10 µM (CAKI-1) [%]	growth at 10 µM (M14) [%]	growth at 10 µM (NCI-H460) [%]	growth at 10 µM (EKVX) [%]	growth at 10 µM (HL-60(TB)) [%]	growth at 10 µM (IGROV-1) [%]	growth at 10 µM (HCC 2998) [%]	growth at 10 µM (SK-MEL-5) [%]	growth at 10 µM (NCI/ADR-RES) [%]	growth at 10 µM (SF-539) [%]	growth at 10 µM (A549) [%]	also measured
COc1ccc(Cn2cc(C(=O)N/N=C3/C(=O)Nc4ccc(F)c(Cl)c43)nn2)cc1	101	105	112	103	100	104	112	96.8	99.2	96.8	107	108	108	78.7	110	104	99.9	104	111	98	growth at 10 µM (HT-29): 98%; growth at 10 µM (KM12): 101%; growth at 10 µM (HCT-15): 113%; growth at 10 µM (MDA-MB-435): 99.3%; growth at 10 µM (SF-268): 99.4%; growth at 10 µM (OVCAR-5): 122%; growth at 10 µM (SN12C): 103%; growth at 10 µM (HCT-116): 109%; growth at 10 µM (SNB-19): 101%; growth at 10 µM (SK-MEL-2): 95.6%; growth at 10 µM (RPMI-8226): 116%; growth at 10 µM (MDA-MB-231): 109%; growth at 10 µM (ACHN): 111%; growth at 10 µM (UACC-62): 108%
COc1ccc(Cn2cc(C(=O)N/N=C3/C(=O)Nc4c(F)cccc43)nn2)cc1	96	83.3	98.4	78.2	97.8	86.3	101	96.5	85.5	84.2	101	105	107	90.7	91.1	102	99.3	96.9	92.7	93.2	growth at 10 µM (HT-29): 86.5%; growth at 10 µM (KM12): 101%; growth at 10 µM (HCT-15): 99.5%; growth at 10 µM (MDA-MB-435): 102%; growth at 10 µM (SF-268): 100%; growth at 10 µM (OVCAR-5): 94.8%; growth at 10 µM (SN12C): 94.8%; growth at 10 µM (HCT-116): 63.7%; growth at 10 µM (SNB-19): 94.2%; growth at 10 µM (SK-MEL-2): 93.3%; growth at 10 µM (RPMI-8226): 89.7%; growth at 10 µM (MDA-MB-231): 96.3%; growth at 10 µM (ACHN): 86.4%; growth at 10 µM (UACC-62): 89.3%
COc1ccc(Cn2cc(C(=O)N/N=C3/C(=O)Nc4ccccc43)nn2)cc1	107	103	104	97.2	102	101	109	93.2	97.8	93.3	103	109	104	93.3	97.5	110	102	97.2	108	98.4	growth at 10 µM (HT-29): 99.2%; growth at 10 µM (KM12): 101%; growth at 10 µM (HCT-15): 105%; growth at 10 µM (MDA-MB-435): 100%; growth at 10 µM (SF-268): 101%; growth at 10 µM (OVCAR-5): 93%; growth at 10 µM (SN12C): 96.3%; growth at 10 µM (HCT-116): 109%; growth at 10 µM (SNB-19): 98%; growth at 10 µM (SK-MEL-2): 94.8%; growth at 10 µM (RPMI-8226): 105%; growth at 10 µM (MDA-MB-231): 101%; growth at 10 µM (ACHN): 107%; growth at 10 µM (UACC-62): 96.7%
